Results as given in patent publication US10683290B2, “Tricyclic compounds as anticancer agents” (BRISTOL-MYERS SQUIBB COMPANY, priority 2015, dated 2020).

The compounds below were run against BRD4 (Homo sapiens, UniProt O60885) (assay: biochemical). Conditions: one of the FRET assays described; read-out: FRET BRD4 IC50.
Assay type: binding

Q: Which IC50 does the source give for `[2H]C([2H])([2H])c1nnn(C)c1-c1cc2c(cc1F)c1ncc(C(C)(C)O)cc1n2C(c1cc(F)ccn1)C1CCOCC1` (racemic) [Example 60, 2-{8-fluoro-5-[(4-fluoropyridin-2-yl)(oxan-4-yl)methyl]-7-[4-(^2H3)methyl-1-methyl-1H-1,2,3-triazol-5-yl]-5H-pyrido[3,2-b]indol-3-yl}propan-2-ol] here?
A: Its IC50 is < 5 nM.

Q: `[2H]C([2H])([2H])c1nnn(C)c1-c1cc2c(cc1F)c1ncc(C(C)(C)O)cc1n2C(C1=CCCOC1)c1ccccc1` (racemic) [Example 61, 2-{5-[5,6-dihydro-2H-pyran-3-yl(phenyl)methyl]-8-fluoro-7-[4-(^2H3)methyl-1-methyl-1H-1,2,3-triazol-5-yl]-5H-pyrido[3,2-b]indol-3-yl}propan-2-ol] was tested. Which IC50 did it give?
A: Its IC50 is < 5 nM.

Q: `[2H]C([2H])([2H])c1nnn(C)c1-c1cc2c(cc1F)c1ncc(C(C)(C)O)cc1n2C(CC1COC1)c1ccccc1` (racemic) [Example 66, 2-{8-fluoro-7-[4-(^2H3)methyl-1-methyl-1H-1,2,3-triazol-5-yl]-5-[2-(oxetan-3-yl)-1-phenylethyl]-5H-pyrido[3,2-b]indol-3-yl}propan-2-ol] was tested. Which IC50 did it give?
A: The IC50 was < 1 nM.

Q: With `Cc1nnn(C)c1-c1ccc2c3ncc(C(C)(C)O)cc3n(C(CCC(F)(F)F)c3ccccn3)c2c1` (single isomer, unassigned) [Example 6, 2-[7-(dimethyl-1H-1,2,3-triazol-5-yl)-5-[4,4,4-trifluoro-1-(pyridin-2-yl)butyl]-5H-pyrido[3,2-b]indol-3-yl]propan-2-ol] as the compound, how does the IC50 read?
A: Its IC50 is < 5 nM.

Q: With `Cc1nnn(C)c1-c1ccc2c3ncc(C(C)(C)O)cc3n(C(CCC(F)(F)F)c3ccccn3)c2c1` (single isomer, unassigned) [Example 7, 2-[7-(dimethyl-1H-1,2,3-triazol-5-yl)-5-[4,4,4-trifluoro-1-(pyridin-2-yl)butyl]-5H-pyrido[3,2-b]indol-3-yl]propan-2-ol] as the compound, how does the IC50 read?
A: Its IC50 is < 5 nM.

Q: For `Cc1nnn(C)c1-c1cc2c(cc1F)c1ncc(C(C)(O)C3CC3)cc1n2[C@H](c1ccccc1F)C1CCOCC1` (single isomer, unassigned) [Example 23], which IC50 is on record?
A: Its IC50 is < 5 nM.

Q: For `Cc1nnn(C)c1-c1cc2c(cc1F)c1ncc(C(C)(O)C3CC3)cc1n2[C@H](c1ccccc1F)C1CCOCC1` (single isomer, unassigned) [Example 24], which IC50 is on record?
A: Its IC50 is < 5 nM.

Q: With `[2H]C([2H])([2H])c1nnn(C)c1-c1cc2c(cc1F)c1ncc(C(C)(C)O)cc1n2C(c1ccccn1)C1CCOCC1` (single isomer, unassigned) [Example 36, 2-{8-fluoro-7-[4-(^2H3)methyl-1-methyl-1H-1,2,3-triazol-5-yl}-5-[oxan-4-yl(pyridin-2-yl)methyl]-5H-pyrido[3,2-b]indol-3-yl]propan-2-ol] as the compound, how does the IC50 read?
A: The IC50 was < 1 nM.

Q: With `[2H]C([2H])([2H])c1nnn(C)c1-c1cc2c(cc1F)c1ncc(C(C)(C)O)cc1n2C(c1ccccn1)C1CCOCC1` (single isomer, unassigned) [Example 37, 2-{8-fluoro-7-[4-(^2H3)methyl-1-methyl-1H-1,2,3-triazol-5-yl}-5-[oxan-4-yl(pyridin-2-yl)methyl]-5H-pyrido[3,2-b]indol-3-yl]propan-2-ol] as the compound, how does the IC50 read?
A: The IC50 was < 5 nM.

Q: Which IC50 does the source give for `[2H]C([2H])([2H])c1nnn(C)c1-c1cc2c(cc1F)c1ncc(C(C)(C)O)cc1n2C(CCC)c1ncccc1F` (single isomer, unassigned) [Example 38, 2-{8-fluoro-5-[1-(3-fluoropyridin-2-yl)butyl]-7-[4-(^2H3)methyl-1-methyl-1H-1,2,3-triazol-5-yl}-5H-pyrido[3,2-b]indol-3-yl]propan-2-ol] here?
A: The IC50 was < 1 nM.

Q: For `[2H]C([2H])([2H])c1nnn(C)c1-c1cc2c(cc1F)c1ncc(C(C)(C)O)cc1n2C(CCC)c1ncccc1F` (single isomer, unassigned) [Example 39, 2-{8-fluoro-5-[1-(3-fluoropyridin-2-yl)butyl]-7-[4-(^2H3)methyl-1-methyl-1H-1,2,3-triazol-5-yl}-5H-pyrido[3,2-b]indol-3-yl]propan-2-ol], which IC50 is on record?
A: Its IC50 is < 5 nM.
